Results on 1 compound are retold here after US20080269342A1, “Pleuromutilin Derivatives and Its Use” (priority 2005, published 2008).

The subject of one experiment is S. pneumoniae. The experiment can be described thus: in vitro antibacterial activity. It counts as cell-based. The note with it: primary respiratory pathogen.
In a further experiment the test system is H. influenzae. Put plainly: in vitro antibacterial activity. It is filed as cell-based. The note with it: primary respiratory pathogen.
Another experiment deals with M. catarrhalis. The experiment can be described thus: in vitro antibacterial activity. It counts as cell-based. The note with it: primary respiratory pathogen.
The subject of another experiment is S. aureus. Put plainly: in vitro antibacterial activity. It counts as cell-based.
A further experiment relates to S. pyogenes. The experiment can be described thus: in vitro antibacterial activity. It counts as cell-based.
For a further experiment, the system named is C. pneumoniae. Put plainly: in vitro activity against atypical pathogens. It counts as cell-based. To be noted: atypical pathogen.
Another experiment has as its system L. pneumophila. It counts as cell-based. The note with it: atypical pathogen.
A further experiment relates to M. pneumoniae. Put plainly: in vitro activity against atypical pathogens. It counts as cell-based. The note with it: atypical pathogen.
The subject of the next experiment is F. tularensis. It counts as cell-based. The note with it: biothreat organism.
The test system of a further experiment is anaerobic organisms. The experiment can be described thus: in vitro activity against anaerobic organisms. It is filed as cell-based.
The test system of a further experiment is N. meningitidis. Put plainly: in vitro activity against Neisserria sp. It counts as cell-based.
The test system of a further experiment is N. gonorrhoeae. The experiment can be described thus: in vitro activity against Neisserria sp. The note with it: both ciprofloxacin susceptible and resistant. It is filed as cell-based.
The subject of experiment [1] is isolates carrying resistance determinants to other antibiotics. Put plainly: in vitro activity against resistant isolates of respiratory pathogens. To be noted: penicillin-, macrolide-, methicillin- or levofloxacin-resistant phenotypes. It counts as cell-based.
Experiment [2] deals with representative Gram-positive and Gram-negative pathogens. The experiment can be described thus: in vitro activity against representative pathogens. It is filed as cell-based. The note with it: pathogens associated with respiratory tract and skin and skin structure infections, including isolates resistant to existing classes of antimicrobials.
The test system is the same in experiment [3]. The experiment can be described thus: in vivo activity against representative pathogens. To be noted: pathogens associated with respiratory tract and skin and skin structure infections, including isolates resistant to existing classes of antimicrobials.
[4] abbreviates: primary respiratory pathogen, primary pathogen of skin and skin structure infections.

For the compound `C=C[C@]1(C)C[C@@H](OC(=O)NC(=O)O[C@H]2C[C@H](N)C2)[C@]2(C)[C@H](C)CC[C@]3(CCC(=O)[C@H]32)[C@@H](C)[C@@H]1O` [Compound I, trans-3-aminocyclobutyl (1S,2R,3S,4S,6R,7R,8R,14R)-4-ethenyl-3-hydroxy-2,4,7,14-tetramethyl-9-oxotricyclo[5.4.3.01,8]tetradec-6-yl imidodicarbonate], the “in vitro antibacterial activity” value in the experiment with S. pneumoniae, in the experiment on H. influenzae, in the experiment with M. catarrhalis, with S. aureus (setting [4]) and in the experiment with S. pyogenes (setting [4]) was “good in vitro antibacterial activity” throughout. Also, the “activity against isolates carrying resistance determinants to other antibiotics” value in the experiment with S. aureus (S. aureus isolates, penicillin-, macrolide-, methicillin- or levofloxacin-resistant phenotypes) is on record as “retained”; in the experiment with S. pyogenes (S. pyogenes isolates, penicillin-, macrolide-, methicillin- or levofloxacin-resistant phenotypes), “retained”; in experiment [1], “activity”. The in vitro activity entry with C. pneumoniae, in the experiment on L. pneumophila, in the experiment on M. pneumoniae, in the experiment with F. tularensis, in the experiment with anaerobic organisms and in the experiment on N. meningitidis was “good in vitro activity” in each case. Moreover, the in vitro activity result in the experiment with N. gonorrhoeae is “good in vitro activity”; in [2] it was “good”. Besides, the in vivo activity entry in experiment [3] is reported as “good”.
